From patent US20250032446A1, “METHODS AND COMPOSITIONS FOR THE BIOSYNTHESIS AND USE OF DEMETHYLATED POLYMETHOXY FLAVONES” (RUTGERS, THE STATE UNIVERSITY OF NEW JERSEY, priority 2021, published 2025)
In brackets after ≈: the same amount, converted by molar mass. Entries after “also recorded” stand apart in the source; their conditions may differ. Where two headings read alike, the source gives them in different places.

Tests used:
PPARγ = experiment: Immunoblotting, PPARγ expression; assay type: cell-based, mouse; conditions: early treatment, day 3
Description: (§1) Primary antibodies which include AMPK-amAb, and Phospho-AMPKa(p-AMPKa) (Thr172) mAb, Acetyl-CoA Carboxylase (ACC) mAb, fatty acid synthase mAb RAs-related Nuclear protein (Ran) pAb, PPARc mAb, and C/EBPa pAb were all obtained from Cell Signaling Technology (Danvers, MA, USA). They were diluted by 1000 times for immunoblotting analyses.
(§2) At day 3 or day 8, cells are harvested with scraper and homogenized with lysis buffer containing 0.5 mM PMSF, 1 mM mini-complete protease inhibitor cocktail (Sigma, St. Louis, MO, USA) and phosphatase inhibitor cocktail (Sigma, St. Louis, MO, USA). Lysates are syringed with 26 gauge ½ in. needles on ice and then applied for centrifugation at 14,000g for 15 min at 4° C. Protein concentration of cell lysates are determined by using Protein and Protein Broad Range (BR) Assay Kits (Thermofisher, Waltham, MA USA) according to the venture's protocol. Lysates are then stored at −80° C. or immediately are subjected to sodium dodecyl sulfate polyacrylamide gel electrophoresis (SDS-PAGE). For the SDS-PAGE, cell lysates are mixed with loading buffer and heated at 95° C. for 5 min prior to electrophoresis. […] Quantification is performed by measuring band intensity using ImageJ software and calculating the ratio of protein of interesting to RAN the internal loading control.

[1] = MTT assay, post-confluent cells (mitotic clonal expansion); assay type: cell-based, mouse; conditions: mouse, post-confluent 3T3-L1 cells, percent of control, read-out: cell viability
Description: (§3) 3T3-L1 cells were seeded on 96-well plate at density of 1×10^4 cells/well and incubated overnight for cell attachment. For measuring pre-confluent cell proliferation, cells were cultivated for 36 hours and full MEME with or without nobiletin or M67N was used. For measuring post-confluent cell proliferation during first three days of differentiation, cells were switched to DM with different concentrations of nobiletin or M67N for 72 hours. At the end of each treatment, cells were washed with PBS three times. MTT ([…]) was added at concentration of 0.5 mg/mL to the cells. After a 3-hour incubation, the medium was decanted from each well and 150 μL DMSO was added to dissolve the formed formazan crystals on a shaker. When the crystal was completely dissolved, the absorbance at 570 nm was measured. Cell viability was interpreted as the percentage (%) of the readout of treated cells divided by that of control. Six repeats were carried out for each concentration.
(§4) 3T3-L1 cells were seeded on 96-well plate at density of 1×10^4 cells/well and were incubated overnight for cell attachment. For measuring pre-confluent cell proliferation, full MEME with or without nobiletin or 6-OH-nobiletin, or 7-OH-nobiletin was used and cells were cultivated for 36 hours. For measuring post-confluent cell proliferation during the first three days of differentiation, cells were treated after 2 days of confluence. Specifically, cells were switched to differentiation medium (DM) with different concentrations of targeted compounds for 24 hours. At the end of each treatment, cells were washed with PBS three times followed by the addition of 100 μL MTT at concentration of 0.5 mg/mL. After 3 hours' incubation, the medium in each well were decanted while 150 μL DMSO was added to dissolve the formed formazan crystals at a shaker. When the crystals were completely dissolved, the absorbance of at 590 nm was measured. Cell viability was interpreted as the percentage (%) of the readout of treated cells divided by that of control. Five repeats were carried out for each concentration.

[2] = system: post-confluent 3T3-L1 cells; experiment: as above; assay type: cell-based, mouse; conditions: 5 μM to 25 μM
Description: as §3, §4

AMPK = experiment: Immunoblotting, AMPK and p-AMPK; assay type: cell-based, mouse; conditions: early and terminal differentiation processes
Description: as §1, §2

3T3-L1 cells [3] = experiment: Flow cytometry with PI staining, cell cycle distribution; assay type: cell-based, mouse
Description: 3T3-L1 cells were seeded in six-well plates at a density of 3-5×10^5/well. After 2 days of confluency, cells were treated with DM in the absence or presence of several doses of nobiletin or […] for 24h. Both detached and adherent cells were harvested by trypsinization and washed with phosphate buffered saline (PBS). Cells were fixed with 70% ice cold ethanol and placed at 4° C. overnight. After removal of ethanol, cells were stained with propidium iodide containing RNAse ((Carlsbad, CA)) for 30 min in the dark. Fluorescence cells analysis was carried out by using an Accuri C6 flow cytometer. Data were processed using Flowjo_10 software. Each experiment was performed 3 times to reduce variance.

[4] = MTT assay, pre-confluent cell proliferation; assay type: cell-based, mouse; conditions: mouse, pre-confluent 3T3-L1 preadipocytes
Description: (§5) 3T3-L1 cells were purchased from American Type Culture Collection (ATCC, Rockville, MD) and maintained in MEME media with 10% FBS 1% penicillin/streptomycin (GIBCO, Paisley, UK) in a humidified atmosphere of 5% CO2 in air at 37° C. Cells were passaged by using 0.05% (vol) Trypsin and replated in 55-cm^2 dishes at a density of 1*10^4 cells/cm^2 until confluence.
(§6) For treatment, nobiletin and the mixture of 6- and 7-OH-nobiletin (M67N) in a 1:49 ratio were first dissolved in dimethyl sulphoxide (DMSO) to make stock solution (5 mM to 100 mM). (FIG. 20) The stock solution was then diluted by 1000 times with culture medium to designated concentrations. Cells cultured in full DMEM was set as negative control while cells treated with DM with 0.1% DMSO as positive control.
as §3, §4

ACC = experiment: Immunoblotting, ACC expression; assay type: cell-based, mouse; conditions: late phase treatment group, day 8
Description: as §1, §2

[5] = Effect of pH of fermented media on extracted content of M2 and M3 (stability); assay type: physicochemical; conditions: for stability at alkaline condition: pH 8.0 and 10.0
Description: Lastly, the fermented media was adjusted to pH 2.0, 5.0, 6.5, 7.0, 8.0 and 10.0 using HCl or NaOH. Subsequently, 3 extractions were conducted, and the sample was dried, weighed and analyzed using HPLC. The amount of extracted metabolites were compared and used to evaluate the effect of pH on extraction.

C/EBPα = experiment: Immunoblotting, C/EBPα expression; assay type: cell-based, mouse; conditions: early treatment, day 3
Description: as §1, §2

FAS = experiment: Immunoblotting, FAS expression; assay type: cell-based, mouse; conditions: late phase treatment group, day 8
Description: as §1, §2

[6] = system: differentiating 3T3-L1 adipocytes; experiment: Oil Red O staining, lipid accumulation; assay type: cell-based, mouse; conditions: for intracellular lipid content: 15 μM; for intracellular lipid content / lipid formation / accumulation reduced to: relative to positive control; for inhibition at 50 µM: Mus musculus, 3T3-L1; for effect on intracellular lipid accumulation: various concentrations, Oil Red O at day 8
Description: Two days after confluence, designated as day 0, adipocyte differentiation was initiated by culturing the cells for three days in differentiation medium (DM) which contained 10 μg/mL insulin, 0.5 mM IBMX, and 1 μM dexamethasone in complete culture medium. At day 3, the medium was replaced with DMEM, containing 10 μg/mL insulin. The medium was changed every two days until day 8. Cells were harvested on day 3 or day 8.
as §6
On day 8, cell layers were washed with 1×PBS and fixed with 10% paraformaldehyde (Sigma, St. Louis, MO, USA). After 15 minutes' fixation, the medium in each well was decanted and placed in a fume hood for complete dryness. Afterwards, cells were subjected to Oil Red O staining for 30 min, which was followed by immediate rinse in water. The intracellular lipid droplets were checked and pictures were captured on Olympus FSX100 Microscope. For the quantification of intracellular lipids, dyes were dissolved in 4% NP-40/isopropanol and the absorbance was measured at 520 nm by a microplate reader.

3T3-L1 preadipocytes = experiment: MTT assay, pre-confluent cell proliferation; assay type: cell-based, mouse
Description: as §5, §6, §3, §4

[7] = Solubility of nobiletin in DMSO; assay type: physicochemical; conditions: organic solvent or mixture, read-out: maximal solubility in DMSO
[8] = Water solubility of nobiletin / nobiletin-HMS dispersion; assay type: physicochemical; conditions: 25 °C
Description: To check the water solubility of nobiletin in the nobiletin-HMS dispersion system, an excess of the media-milled nobiletin powder was dispersed into distilled water and agitated thoroughly for 24 hours at room temperature to reach full saturation.

[9] = system: post-confluent 3T3-L1 cells; conditions: 3T3-L1 preadipocytes; Hadrich & Sayadi, 2018; cited from earlier work
3T3-L1 cells [10] = conditions: 3T3-L1 preadipocytes; Hadrich & Sayadi, 2018; cited from earlier work
[11] = fermented media at pH 2.0 (first of four values, pH 2.0 to 7.0)
[12] = fermented media at pH 5.0 (second of four values)
[13] = fermented media at pH 6.5 (third of four values)
[14] = fermented media at pH 7.0 (fourth of four values)

With `COc1ccc(-c2cc(=O)c3c(OC)c(O)c(OC)c(OC)c3o2)cc1OC` [6-OH-nobiletin, 6-hydroxy-5,7,8,3′,4′-pentamethoxyflavone] the “expression level of PPARγ” value (PPARγ) was “dose-dependently suppressed”, the viability at 24 h, 35 µM ([1]; 35 μM) was 83.1 ± 6.2% and the viability at 24 h, 50 µM ([1]; 50 μM) was 85.6 ± 5.3%. The “change of cell viability” value [2] was “no significant difference”, the “expression and phosphorylation of AMPK” value (AMPK) was “greatly enhanced” and the “cells in S phase” value (3T3-L1 cells [3]; 5 μM) was 42%. For the same molecule, the “preadipocytes in G2/M phase” value (3T3-L1 cells [3]; 5 μM) was 40%, the “population in G2/M phase” value (3T3-L1 cells [3]; 50 μM) was 20% and the “population in S phase” value (3T3-L1 cells [3]; 50 μM) was 60%. The “effect on cell cycle progression” value (3T3-L1 cells [3]; serial doses in differentiation medium) was “significantly delayed the progression of the cell cycle and increased the S population in a dose-dependent manner”, the viability at 36 h, 75 µM ([4]; 75 μM, percent of control) was about 82% and the viability at 36 h, 100 µM ([4]; 100 μM, percent of control) was about 65%. For the same molecule, the “expression of ACC” value (ACC) was “significantly suppressed their expression”, the “total amount of extracted metabolite” value [5, 11] was 123.9 ± 4.6 µg/mL and the “total amount of extracted metabolite” value [5, 12] was 125.6 ± 3.2 µg/mL. For the same molecule, the “total amount of extracted metabolite” value [5, 13] was 125.8 ± 1.9 µg/mL, the “total amount of extracted metabolite” value [5, 14] was 125.9 ± 1.2 µg/mL and the “content of extracted metabolite” value ([5]; pH 8.0) was 110 ± 1.7 µg/mL. The “stability at alkaline condition” value [5] was “not stable at alkaline condition”, the “content of extracted metabolite” value ([5]; pH 10.0) was 109 ± 2.6 µg/mL and the “production of C/EBPα” value (C/EBPα) was “greatly reduced”. For the same molecule, the “expression of FAS” value (FAS) was “significantly suppressed their expression”, the intracellular lipid content [6] was 69.8±2.1% and the “decrease of lipid content” value ([6]; 50 μM, early phase treatment (day 0 to day 3)) was 50%. For the same molecule, the “lipid formation / accumulation reduced to” value ([6]; 50 μM) was 24.3±4.2%, the inhibition at 50 µM ([6]; 50 μM, late-phase treatment (day 4 to day 8), read-out: inhibition of lipid accumulation) was 72% and the “effect of early phase and late phase treatment on lipid accumulation” value ([6]; early phase day 0-3, late phase day 4-8) was “suppressed the lipid accumulation in a dose-dependent matter”. The “effect on intracellular lipid accumulation” value [6] was “obvious suppressive effect on intracellular lipid accumulation”.

For `COc1ccc(-c2cc(=O)c3c(OC)c(OC)c(O)c(OC)c3o2)cc1OC` [7-OH-nobiletin, 7-hydroxy-5,6,8,3′,4′-pentamethoxyflavone], the “effect on cell proliferation” value (3T3-L1 preadipocytes; even at 100 μM) was “did not present significant effect on cell proliferation”, the “total amount of extracted metabolite” value [5, 11] was 46.5 ± 1.3 µg/mL and the “total amount of extracted metabolite” value [5, 12] was 47.5 ± 1.9 µg/mL. The “total amount of extracted metabolite” value [5, 13] was 47.6 ± 0.7 µg/mL, the “total amount of extracted metabolite” value [5, 14] was 46.9 ± 1.5 µg/mL and the “content of extracted metabolite” value ([5]; pH 8.0) was 39.2 ± 1.8 µg/mL. The “stability at alkaline condition” value [5] was “not stable at alkaline condition”, the “content of extracted metabolite” value ([5]; pH 10.0) was 11.7 ± 0.6 µg/mL and the “effect on intracellular lipid accumulation” value [6] was “obvious suppressive effect on intracellular lipid accumulation”.

For `COc1ccc(-c2cc(=O)c3c(OC)c(OC)c(OC)c(OC)c3o2)cc1OC` [Nobiletin, 5,6,7,8,3′,4′-hexamethoxyflavone, reference compound], the solubility [7] was at most 18 mg/mL, the solubility [8] was 9.2 µg/mL (≈ 22.9 µM) and the “inhibitory effect on the proliferation of preadipocytes” value (3T3-L1 preadipocytes; up to 75 μM) was “did not show any inhibitory effect; also recorded: did not demonstrated any inhibition effect”. The cytotoxicity at 36 h, 100 μM ([4]; 100 μM, read-out: cell viability reduced by) was 50%, the intracellular lipid content [6] was 101.254±6.096% and the “lipid formation / accumulation reduced to” value ([6]; 50 μM) was 45.2±4.9%. For the same molecule, the inhibition at 50 µM ([6]; 50 μM, read-out: reduction of lipid formation / inhibition of lipid accumulation) was 50% and the “effect on intracellular lipid accumulation” value [6] was “decreased the intracellular lipid content in a dose-dependent way; also recorded: obvious suppressive effect on intracellular lipid accumulation”.

For `O=c1cc(-c2ccc(O)cc2)oc2cc(O[C@@H]3O[C@H](CO)[C@@H](O)[C@H](O)[C@H]3O)cc(O)c12` [apigetrin], the “decrease of cell viability” value [9] is given as 50% and the cell cycle arrest (3T3-L1 cells [10]) is given as “arrest 3T3-L1 preadipocytes at G1 phase”.
